Data published in US12303509B2, “Compounds for the treatment of BRAF-associated diseases and disorders” (Pfizer Inc., priority 2020, dated 2025).

Legend:
[1] = tested on: NCI-H1666 (BRAF G466V) cells; experiment: Cellular phospho-ERK inhibition assay in NCI-H1666 cells; type: cell-based; settings: Homo sapiens, 1 hour treatment, read-out: IC50 NCI-H1666 pERK
Procedure: (§1) The compounds of Example 13, Example 14 and Example 126 were evaluated in a phospho-ERK assay in two mutant BRAF Class III cell lines: NCI-H1666 (BRAF^G466V) and WM3629 cells (BRAF^D594G/NRAS^G12D). NCI-H1666 cells were obtained from the American Type Culture Collection (ATCC, Rockville, MD) and WM3629 cells were obtained from Rockland Immunochemicals (Limerick, PA). Cells were maintained in RPMI growth medium containing 10% FBS.
(§2) Cells were harvested according to standard protocols, counted, and plated onto flat-bottom, 96-well tissue culture plates (Costar #3599) at 2.5×10^4 cells/well in 100 μL/well of growth medium containing 10% FBS. After an overnight incubation at 37° C. with 5% CO2 cells were treated for 1 hour at 37° C., 5% CO2 with inhibitors prepared as a 9-point, 1:3.33 fold dilution series with final compound concentrations ranging from 66 pM-10 μM and a constant DMSO concentration of 0.25%. Control wells contained either 0.25% DMSO alone (uninhibited control) or 10 μM binimetinib (complete inhibition control). The levels of phosphorylated ERK were determined using an In Cell Western protocol: following compound incubation, growth medium was discarded, and cells were fixed with 0.4% formaldehyde in PBS for 20 minutes at room temperature. Cells were permeabilized with 100% methanol for 10 minutes at room temperature. Plates were washed with PBS containing 0.05% Tween-20 and blocked for 1 hour at room temperature with LI-COR Blocking Buffer (LI-COR Biosciences; Cat. #927-40000). Plates were then incubated for 2 hours at room temperature with 50 μL of a 1:400 dilution of anti-phospho-ERK1/2 (Thr202/Tyr204) (Cell Signaling; Cat. #9101) and a 1:1000 dilution of anti-GAPDH (Millipore; Cat. #MAB374) in LI-COR blocking buffer containing 0.05% Tween-20. […] Plates were analyzed by reading on an Odyssey CLx infrared scanner. […]
(§3) [formula] • Where: • Xmax d Average Uninhibited Controls • Xmin Average Complete Inhibition Controls • IC50 values were then calculated using a 4-parameter fit in XLfit software and are shown in Table A2.

[2] = tested on: WM3629 cells (BRAF D594G/NRAS G12D); experiment: Proliferation assay (CellTiter-Glo) in WM3629 cells; type: cell-based; settings: 3-5 day incubation
Procedure: as §1, with “proliferation” for “phospho-ERK”
Cells were harvested according to standard protocols, counted, and plated onto flat-bottom, 96-well tissue culture plates (Costar #3599) at 2000-5000 cells/well in 100 μL/well of growth medium containing 10% FBS. Cells were incubated at 37° C. with 5% CO2 overnight then treated with inhibitors prepared as a 9-point, 1:3.33 fold dilution series with final compound concentrations ranging from 66 pM-10 μM and a constant DMSO concentration of 0.25%. Control wells contained 0.25% DMSO alone. After a 3-5 day incubation at 37° C., 5% CO2, cell viability was determined by adding 100 μL CellTiter-Glo® Reagent (Promega) to each well and incubated for 15 minutes at room temperature. “Day 0” controls were determined by performing CellTiter-Glo© assay on DMSO control wells at the time of compound treatment (“Day 0” control=0 POC). Luminescence was measured on a Cytation 5 plate reader (BioTek) and values were converted to POC using the following equation:
[formula] • Where: • Xmax Average DMSO Controls • Xmin Average “Day 0” DMSO Controls • IC50 values were calculated using a 4-parameter fit in XLfit software and are shown in Table A2.

[3] = tested on: WM3629 cells (BRAF D594G/NRAS G12D); experiment: Cellular phospho-ERK inhibition assay in WM3629 cells; type: cell-based; settings: 1 hour treatment, read-out: IC50 WM3629 pERK
Procedure: as §1, §2, §3

[4] = MDR1 LLC-PK1 and BCRP MDCKII permeability assay: permeability coefficient (Papp); type: in vitro ADME
Text: Final organic concentration in the assay was 1%.

Compound: Cn1cnc2ccc(Nc3c(F)ccc(NS(=O)(=O)N4CC5CC4C5)c3Cl)c(F)c2c1=O [Example 13, N-(2-chloro-4-fluoro-3-((5-fluoro-3-methyl-4-oxo-3,4-dihydroquinazolin-6-yl)amino)phenyl)-2-azabicyclo[2.1.1]hexane-2-sulfonamide]
- IC50 [1]: 15 nM
- IC50 [2]: > 10000 nM
- IC50 [3]: 0.7 nM
- Papp at 2 h, 1 µM [4]: 32 ×10⁻⁶ cm/s

Compound: Cn1cnc2ccc(Nc3c(F)ccc(NS(=O)(=O)N4CC[C@@H](F)C4)c3Cl)c(F)c2c1=O [Example 14, (R)-N-(2-chloro-4-fluoro-3-((5-fluoro-3-methyl-4-oxo-3,4-dihydroquinazolin-6-yl)amino)phenyl)-3-fluoropyrrolidine-1-sulfonamide]
- IC50 [1]: 7.1 nM
- IC50 [2]: > 10000 nM
- IC50 [3]: 0.2 nM
- Papp at 2 h, 1 µM [4]: 28 ×10⁻⁶ cm/s
